Laboratory results published in patent US20110081293A1, “METHODS AND COMPOSITIONS RELATED TO CLOT-BINDING LIPID COMPOUNDS” (SANFORD-BURNHAM MEDICAL RESEARCH INSTITUTE, priority 2009, published 2011).
No end group written: not given here. fluorescent dye = not defined here

Columns and labels:
B16F1 melanomas = assay: CREKA peptide homing in fibrinogen null mice and normal littermates; assay type: in vivo
Description: (§1) Phage screening, tumors and peptides. In vivo screening of a peptide library with the general structure of CX7C (SEQ ID NO: 4), where C is cysteine and X is any amino acid, was carried out as described (Oh 2004) using 65- to 75-day-old transgenic MMTV PyMT mice (Hutchinson 2000). These mice express the polyoma virus middle T antigen (MT) under the transcriptional control of the mouse mammary tumor virus (MMTV), leading to the induction of multi-focal mammary tumors in 100% of carriers. MDA-MB-435 tumors in nude mice and peptide synthesis have been described (Laakkonen 2002; Laakkonen 2004). B16F1 murine melanoma tumors were grown in fibrinogen null mice (Suh 1995) and their normal littermates and used when they reached 0.5-1 cm in size (Pilch 2006).

PyMT tumors = assay: Tumor homing of intravenously injected fluorescent CREKA peptide; assay type: in vivo, mice; settings: minutes to hours after the injection
Description: as §1

[1] = tested on: MDA-MB-435 human breast cancer xenografts; assay: as above; assay type: in vivo, mice
Description: as §1

MDA-MB-435 tumor = assay: Whole animal imaging of Alexa Fluor 647-labeled CREKA; assay type: in vivo, mouse; settings: peptide labeled with Alexa 647
Description: (A). Balb/c nude mice bearing MDA-MB-435 human breast cancer xenograft tumors or transgenic MMTV PyMT mice with breast tumors were intravenously injected with 0.1 mg of fluorescein-CREKA. The animals were sacrificed by perfusion 24 hours post-injection and tissue sections were examined by fluorescent microscopy. Right panel, control organs of MDA-MB 435 tumor mice. Magnification 200×. (B). Whole animal imaging of MDA-MB-435 tumor mouse injected 6 hours earlier with 30 μg of Alexa Fluor 647-labeled CREKA. Maestro imaging system (Cambridge Research Inc., Woburn, Mass.) was used to acquire and process the image. The arrow points to the tumor and the arrowhead to the urinary bladder.

With “cys-arg-glu-lys-ala ({fluorescent dye}-CREKA; reading uncertain; also: dye identity not given here) [CREKA peptide]” the “accumulation in B16F1 melanomas” value (B16F1 melanomas; fibrinogen null mice) was “failed to accumulate”, the “accumulation in B16F1 tumors” value (B16F1 melanomas; normal littermates of the null mice) was “formed a brightly fluorescent meshwork” and the “detection of intravenously injected peptide in tumors” value (PyMT tumors) was “readily detectable”. For the same substance, the “detection of intravenously injected peptide in tumors” value ([1]; MDA-MB-435 xenografts, minutes to hours after the injection) was “readily detectable”, the “detection of peptide in normal tissues” value ([1]; normal tissues) was “essentially undetectable” and the “whole body imaging, peptide accumulation” value (MDA-MB-435 tumor) was “peptide accumulation in the breast cancer xenografts, and in the bladder”.
